In patent US5914319A, “Antithrombotic agents” (Eli Lilly and Company, priority 1995, dated 1999):
Where a name gives a salt, the structure may show the parent alone.

Experiments:
Format in all cases: biochemical
Human plasma [1] = assay: Human plasma anticoagulation, prothrombin time (PT); conditions: concentration required to double the PT, linear extrapolation
Protocol: (§1) Dog plasma and rat plasma is obtained from conscious mixed-breed hounds (either sex, Hazelton-LRE, Kalamazoo, Mich., U.S.A.) or from anesthetized male Sprague-Dawley rats (Harlan Sprague-Dawley, Inc., Indianapolis, Ind., U.S.A.) by venipuncture into 3.8 percent citrate. Fibrinogen is prepared from in-date ACD human blood as the fraction I-2 according to previous procedures and specifications. […] Human fibrinogen is also purchased as 98 percent pure/plasmin free from American Diagnostica, Greenwich, Conn. Coagulation reagents ACTIN, Thromboplastin, and Human plasma are from Baxter Healthcare Corp., Dade Division, Miami, Fla. Bovine thrombin from Parke-Davis ([…], Mich.) is used for coagulation assays in plasma.
(§2) Coagulation assay procedures are as previously described. […] A CoAScreener coagulation instrument (American LABor, Inc.) is used for all coagulation assay measurements. The prothrombin time (PT) is measured by adding 0.05 mL saline and 0.05 mL Thromboplastin-C reagent to 0.05 mL test plasma. The activated partial thromboplastin time (APTT) is measured by incubation of 0.05 mL test plasma with 0.05 mL Actin reagent for 120 seconds followed by 0.05 mL CaCl2 (0.02M). The thrombin time (TT) is measured by adding 0.05 mL saline and 0.05 mL thrombin (10 NIH units/mL) to 0.05 mL test plasma. The compounds of Formula I are added to human or animal plasma over a wide range of concentrations to determine prolongation effects on the APTT, PT, and TT assays. Linear extrapolations are performed to estimate the concentrations required to double the clotting time for each assay.

Human plasma [2] = assay: Human plasma anticoagulation, activated partial thromboplastin time (APTT); conditions: concentration required to double the APTT, linear extrapolation
Protocol: as §1, §2

Human plasma [3] = assay: Human plasma anticoagulation, thrombin time (TT); conditions: concentration required to double the thrombin time, linear extrapolation
Protocol: as §1, §2

Compound | Human Plasma Anticoagulation 2× Clotting time (ng/mL) PT (Human plasma [1]) [ng/mL] | Human Plasma Anticoagulation 2× Clotting time (ng/mL) APTT (Human plasma [2]) [ng/mL] | Human Plasma Anticoagulation 2× Clotting time (ng/mL) TT (Human plasma [3])
1-Piq-Pro-p-NHCH2 C6 H4 C(NH)NH2.2HCl [Example 18] | 170 | 79 | 7 ng/mL
Cl.NC(N)=NC/C=C/CNC(=O)[C@@H]1CCCN1C(=O)[C@H](N)Cc1ccccc1 (relative stereo) [Example 8, D-Phe-Pro-NHCH2 -trans-CH=CHCH2 NHC(NH)NH2.HCl] | – | – | 130 ng/mL
Cl.NC[C@H]1CC[C@H](CNC(=O)[C@@H]2CCCN2C(=O)[C@H](N)Cc2ccccc2)CC1 (relative stereo) [Example 12, D-Phe-Pro-NHCH2 -trans-4-(aminomethyl)cyclohexane.HCl] | – | – | 1,700 ng/mL
CCS(=O)(=O)N[C@H](CC1CCCCC1)C(=O)N1CCC[C@H]1C(=O)NCCCCN=C(N)N.Cl [Example 2, EtSO2 -D-Cha-Pro-Agm.HCl] | – | – | 170 ng/mL
CCOC(=O)N[C@H](Cc1ccccc1)C(=O)N1CCC[C@H]1C(=O)NCCCCN=C(N)N.Cl [Example 3, EtOCO-D-Phe-Pro-Agm.HCl] | – | – | 590 ng/mL
N=C(N)NCCCCCCNC(=O)[C@@H]1CCCN1C(=O)[C@H](N)Cc1ccccc1 [Example 5, D-Phe-Pro-NH(CH2)6 NHC(NH)NH2.HCl] | – | – | 30,000 ng/mL
N=C(N)NCCCCCNC(=O)[C@@H]1CCCN1C(=O)[C@H](N)Cc1ccccc1 [Example 6, D-Phe-Pro-NH(CH2)5 NHC(NH)NH2.HCl] | – | – | 390 ng/mL
N=C(N)NCCCNC(=O)[C@@H]1CCCN1C(=O)[C@H](N)Cc1ccccc1 [Example 7, D-Phe-Pro-NH(CH2)3 NHC(NH)NH2.HCl] | – | – | 490 ng/mL
N=C(N)NCc1ccc(CNC(=O)[C@@H]2CCCN2C(=O)[C@H](N)Cc2ccccc2)cc1 [Example 9, D-Phe-Pro-p-NHCH2 C6 H4 CH2 NHC(NH)NH2.2TFA] | – | – | > 91,000 ng/mL
NCc1ccc(CNC(=O)[C@@H]2CCCN2C(=O)[C@H](N)Cc2ccccc2)cc1 [Example 10, D-Phe-Pro-p-NHCH2 C6 H4 CH2 NH2.HCl] | – | – | 420 ng/mL
Cl.NCc1cccc(CNC(=O)[C@@H]2CCCN2C(=O)[C@H](N)Cc2ccccc2)c1 [Example 11, D-Phe-Pro-m-NHCH2 C6 H4 CH2 NH2.HCl] | – | – | 8,800 ng/mL
Nc1ccc(CNC(=O)[C@@H]2CCCN2C(=O)[C@H](N)Cc2ccccc2)cc1 [Example 13, D-Phe-Pro-p-NHCH2 C6 H4 NH2.HCl] | – | – | 660 ng/mL
Cl.Nc1ccc(CCNC(=O)[C@@H]2CCCN2C(=O)[C@H](N)Cc2ccccc2)cc1 [Example 14, D-Phe-Pro-p-NHCH2 CH2 C6 H4 NH2.HCl] | – | – | 21,000 ng/mL
Nc1ccc(CNC(=O)[C@@H]2CCCN2C(=O)[C@@H](CC2CCCCC2)NCC(=O)O)cc1 [Example 62, HO2 CCH2 -D-Cha-Pro-4-NHCH2 C6 H4 NH2.HCl] | – | – | 54 ng/mL
Nc1ccc(CCNC(=O)[C@@H]2CCCN2C(=O)[C@@H](CC2CCCCC2)NCC(=O)O)cc1 [Example 63, HO2 CCH2 -D-Cha-Pro-4-NHCH2 CH2 C6 H4 NH2.HCl] | – | – | 680 ng/mL
Cl.N=C(N)c1cc(CNC(=O)[C@@H]2CCCN2C(=O)[C@@H](CC2CCCCC2)NCC(=O)O)cs1 [Example 65, HO2 CCH2 -D-Cha-Pro-4-NHCH2 -2-amidinothiophene.HCl] | – | 48 | 1 ng/mL
D-Phe-Pro-p-NHCH2 C6 H4 C(NH)NH2.HCl [Example 15] | – | 89 | 9 ng/mL
